Source: patent KR20080020768A, “항균 효과를 갖는 목단피의 추출물로부터 분리된 신규구조의 6‘-오-바닐릴옥시파에오니플로린 화합물을유효성분으로 함유하는 조성물” (priority 2006, dated 2008)
In brackets after ≈: the same amount, converted by molar mass.

Tests used:
E. coli O157 ATCC 43890 = assay: Minimum inhibitory concentration (MIC) measurement; type: cell-based; conditions: Escherichia coli, ATCC43890, 24 h, read-out: minimum inhibitory concentration (MIC)
MRSA ATCC 700698 = assay: Minimum inhibitory concentration (MIC) measurement; type: cell-based, methicillin-resistant S. aureus; conditions: Staphylococcus aureus, 24 h, read-out: minimum inhibitory concentration (MIC)
[1] = test system: all 18 causative bacteria of zoonotic infectious diseases [인수 공통 감염병을 유발하는 원인균 18종 모두]; assay: Minimum inhibitory concentration (MIC) measurement, all 18 strains; type: cell-based; conditions: 24 h; range over all 18 strains
[2] = test system: Salmonella typhimurium standard strain (Sal-13) [수과연표준균주 (Sal-13)]; assay: Minimum inhibitory concentration (MIC) measurement; type: cell-based; conditions: Salmonella enterica, 24 h, read-out: minimum inhibitory concentration (MIC)
[3] = test system: Shigella dysenteriae ATCC 49557; assay: Minimum inhibitory concentration (MIC) measurement; type: cell-based; conditions: ATCC49557, 24 h, read-out: minimum inhibitory concentration (MIC)
[4] = test system: Shigella flexeneri JOL378; assay: Minimum inhibitory concentration (MIC) measurement; type: cell-based; conditions: JOL378, 24 h, read-out: minimum inhibitory concentration (MIC)
[5] = test system: Shigrlla dysenteriae JOL377; assay: Minimum inhibitory concentration (MIC) measurement; type: cell-based; conditions: 24 h, read-out: minimum inhibitory concentration (MIC)
[6] = test system: E. coli K88 standard strain (E-126) [수과연표준균주 (E-126)]; assay: Minimum inhibitory concentration (MIC) measurement; type: cell-based; conditions: Escherichia coli, 24 h, read-out: minimum inhibitory concentration (MIC)
[7] = test system: MRSA 6 animal (chicken) isolate [동물(닭) 분리주]; assay: Minimum inhibitory concentration (MIC) measurement; type: cell-based, methicillin-resistant S. aureus; conditions: Staphylococcus aureus, 24 h, read-out: minimum inhibitory concentration (MIC)
[8] = test system: Vibrio cholerae O1 JOL375; assay: Minimum inhibitory concentration (MIC) measurement; type: cell-based; conditions: O1JOL375, 24 h, read-out: minimum inhibitory concentration (MIC)
Salmonella typhi JOL380 = assay: Minimum inhibitory concentration (MIC) measurement; type: cell-based; conditions: Salmonella enterica, 24 h, read-out: minimum inhibitory concentration (MIC)
E. coli O157 ATCC 35150 = assay: Minimum inhibitory concentration (MIC) measurement; type: cell-based; conditions: Escherichia coli, ATCC35150, 24 h, read-out: minimum inhibitory concentration (MIC)
[9] = test system: Salmonella gallinarium standard strain [수과연표준균주]; assay: Minimum inhibitory concentration (MIC) measurement; type: cell-based; conditions: 24 h, read-out: minimum inhibitory concentration (MIC)
[10] = test system: Vibrio cholerae O139 JOL376; assay: Minimum inhibitory concentration (MIC) measurement; type: cell-based; conditions: O139JOL376, 24 h, read-out: minimum inhibitory concentration (MIC)
[11] = test system: MRSA 104 human isolate [사람 분리주]; assay: Minimum inhibitory concentration (MIC) measurement; type: cell-based, methicillin-resistant S. aureus; conditions: Staphylococcus aureus, 24 h, read-out: minimum inhibitory concentration (MIC)
[12] = test system: Salmonella paratyphi A JOL381; assay: Minimum inhibitory concentration (MIC) measurement; type: cell-based; conditions: Salmonella enterica, 24 h, read-out: minimum inhibitory concentration (MIC)
[13] = test system: E. coli O157 animal isolate [동물 분리주]; assay: Minimum inhibitory concentration (MIC) measurement; type: cell-based; conditions: Escherichia coli, 24 h, read-out: minimum inhibitory concentration (MIC)
[14] = test system: Salmonella enteritidis standard strain (Sal-36) [수과연표준균주 (Sal-36)]; assay: Minimum inhibitory concentration (MIC) measurement; type: cell-based; conditions: Salmonella enterica, 24 h, read-out: minimum inhibitory concentration (MIC)
[15] = test system: E. coli K99 standard strain (E-125) [수과연표준균주 (E-125)]; assay: Minimum inhibitory concentration (MIC) measurement; type: cell-based; conditions: Escherichia coli, 24 h, read-out: minimum inhibitory concentration (MIC)

| Structure (SMILES) | MIC (E. coli O157 ATCC 43890) | MIC (MRSA ATCC 700698) | MIC [1] | MIC [2] | MIC [3] | MIC [4] | MIC [5] | MIC [6] | MIC [7] | MIC [8] | MIC (Salmonella typhi JOL380) | MIC (E. coli O157 ATCC 35150) | MIC [9] | MIC [10] | MIC [11] | MIC [12] | MIC [13] | MIC [14] | MIC [15] |
| --- | --- | --- | --- | --- | --- | --- | --- | --- | --- | --- | --- | --- | --- | --- | --- | --- | --- | --- | --- |
| COc1cc(C(=O)OCC2OC(OC34CC5C6(O)CC3(C)OC(O6)C54COC(=O)c3ccc(O)cc3)C(O)C(O)C2O)ccc1O (centres unmarked) [6′-오-바닐릴옥시파에오니플로린, 6'-O-vanillyloxypaeoniflorin] | 200 µg/mL (≈ 309 µM) | 200 µg/mL (≈ 309 µM) | 100 to 500 µg/mL (≈ 155 to 773 µM) | 200 µg/mL (≈ 309 µM) | 500 µg/mL (≈ 773 µM) | 200 µg/mL (≈ 309 µM) | 200 µg/mL (≈ 309 µM) | 200 µg/mL (≈ 309 µM) | 300 µg/mL (≈ 464 µM) | 100 µg/mL (≈ 155 µM) | 200 µg/mL (≈ 309 µM) | 300 µg/mL (≈ 464 µM) | 200 µg/mL (≈ 309 µM) | 100 µg/mL (≈ 155 µM) | 200 µg/mL (≈ 309 µM) | 200 µg/mL (≈ 309 µM) | 200 µg/mL (≈ 309 µM) | 200 µg/mL (≈ 309 µM) | – |
| NCC1OC(OC2C(N)CC(N)C(OC3OC(CO)C(O)C(N)C3O)C2O)C(O)C(O)C1O (centres unmarked) [Kanamycin A] | 10 µg/mL (≈ 20.6 µM) | > 100 µg/mL | – | 50 µg/mL (≈ 103 µM) | > 100 µg/mL | 10 µg/mL (≈ 20.6 µM) | > 100 µg/mL | 50 µg/mL (≈ 103 µM) | 50 µg/mL (≈ 103 µM) | > 100 µg/mL | 50 µg/mL (≈ 103 µM) | 10 µg/mL (≈ 20.6 µM) | 50 µg/mL (≈ 103 µM) | 50 µg/mL (≈ 103 µM) | > 100 µg/mL | > 100 µg/mL | > 100 µg/mL | 50 µg/mL (≈ 103 µM) | – |
| CC1(C)S[C@@H]2[C@H](NC(=O)Cc3ccccc3)C(=O)N2[C@H]1C(=O)O [Penicillin G] | 50 µg/mL (≈ 150 µM) | 100 µg/mL (≈ 299 µM) | – | 10 µg/mL (≈ 29.9 µM) | > 100 µg/mL | > 100 µg/mL | > 100 µg/mL | 100 µg/mL (≈ 299 µM) | > 100 µg/mL | > 100 µg/mL | > 100 µg/mL | 50 µg/mL (≈ 150 µM) | 10 µg/mL (≈ 29.9 µM) | 1 µg/mL (≈ 2.99 µM) | > 100 µg/mL | > 100 µg/mL | > 100 µg/mL | 50 µg/mL (≈ 150 µM) | 50 µg/mL (≈ 150 µM) |
